The values that follow come from US10813920B2, “Drug for treating corneal endothelium by promoting cell proliferation or inhibiting cell damage” (THE DOSHISHA, priority 2013, dated 2020).

SMILES strings stand for the structures.

Experiment [1] has as its system human corneal endothelial cells. Kind of experiment: BrdU ELISA, one concentration per agent, human corneal endothelial cells (Example 9). The settings on record: 10 μM SB203580, 1 μM Semapimod, 3 μM BIRB796, 1 μM PH-797804, 3 μM VX-702, 3 μM LY2228820, 3 μM TAK-715, * p<0.01. It is filed as cell-based. As for the experimental part: The medium was removed from a culture dish culturing human corneal endothelial cells. PBS (-) heated to 37° C. in advance was added thereto and the cells were washed. This operation was repeated twice. After removing the PBS (-) TrypLE Select (×10) (GIBCO, A12177-01) was added and the cells were incubated for 10 minutes at 37° C. (5% CO2). The cells were then suspended in Opti-MEM (GIBCO, 31985-070) and centrifuged for 3 minutes at 1200 rpm to collect the cells. A 96-well plate was treated with an FNC coating mix (50 ml ([…], catalog number: 0407). The human corneal endothelial cells (lot: C1642-P8) were seeded in a Condition Medium for humans in the coated 96-well plate at a ratio of 3000 cells/well. The cells were cultured for 30 hours at 37° C. (5% CO2). After 30 hours, the medium was removed and changed to a serum free medium: Opti-MEM+1% P/S to culture the cells for 18 hours. […] SMC20120918), BIRB796 (Doramapimod) (Selleck Chemicals, catalog number: S1574, lot number: S157402), PH-797804 (Selleck Chemicals, catalog number: S2726, lot number: 01), VX-702 (Selleck Chemicals, catalog number: S6005, lot number: 02), LY2228820 (Selleck Chemicals, catalog number: S1494, lot number: 01), and TAK-715 (Selleck Chemical, catalog number: […] DMSO was added to the control. After 24 hours, a BrdU labeling reagent (Amersham Cell Proliferation Biotrak ELISA System, Version 2, GE Healthcare, catalog number: RPN250) was further added at a ratio of 1:1000 to the DMEM+10% FBS+1% P/S medium. […] DMSO was added to the control. After 24 hours, BrdU ELISA was carried out with Amersham Cell Proliferation Biotrak ELISA System, Version 2 (GE Healthcare, catalog number: RPN250). The absorbance at 450 nm was measured.

The test system of experiment [2] is corneal endothelium. Briefly: Partial rabbit corneal endothelial disorder model, eye drops. It is filed as in vivo. As for the experimental part:
A stainless steel chip with a diameter of 7 mm was immersed in liquid nitrogen and cooled. The chip was contacted with the center portion of a corneal of a Japanese white rabbit (obtained from Oriental Bioservice) for 15 seconds under general anesthesia, such that corneal endothelial cells at the center portion partially fell off. Eye drops of SB203580 adjusted to 10 mM was then administered 4 times a day for 2 days at 50 μl per dose. As a control, eye drops of a base agent were administered in an eye in which a partial corneal endothelial disorder was similarly created, and a picture was taken. Further, the rabbit was euthanized and the corneal was extracted. The wounded area of the corneal endothelium was stained with alizarin red S (Nacalai Tesque, CI-58005) and observed. Furthermore, immunostaining was applied to corneal tissue with the cell proliferation marker Ki67. The same methodology as the aforementioned Examples or the like was used for immunostaining.

In experiment [3] the test system is human corneal endothelial cells. Briefly: Cytokine antibody array (Proteome Profiler) of corneal endothelial culture supernatant. It is filed as cell-based. The conditions noted are these: 10 μM, semi quantitative. As for the experimental part:
Corneal endothelial cells were cultured in the presence of 10 μM SB203580, and culture supernatant was collected as a sample solution. Cytokines in the culture supernatant were comprehensively measured semi quantitatively with a Proteome Profiler (# ARY005, R&D). A membrane blotted with cytokine antibodies was placed in a tray. 2 ml of blocking solution was added and the membrane was incubated for 1 hour at room temperature. Biotin antibodies were added to the sample solution and incubated for 1 hour at room temperature. The blocking solution was discarded. The membrane was immersed in an antibody solution and incubated overnight at 4° C. After washing the membrane, 2 ml of HRP labeling streptavidin solution diluted with a blocking solution was added and the membrane was incubated at room temperature for 30 minutes. After washing the membrane, a substrate solution was added for detection with LAS400 (Fuji Film).
Based on the aforementioned experimental methodology, a cytokine antibody array (Proteome Profiler, # ARY005, R&D Systems) blotted with 36 types of antibodies was used to find the expression pattern of cytokines in a human corneal endothelial culture solution.

Experiment [4] has as its system corneal endothelium. Kind of experiment: Monkey corneal endothelial partial disorder model, eye drops, Ki-67 immunostaining. It is filed as in vivo, cynomolgus monkey. The settings on record: 3 mM eye drops, 50 μl, 4 times a day, right eye; vs base agent in left eye; 5 views per eye; p<0.01. Here is the method:
After a stainless steel bar with a diameter of 7 mm was cooled with liquid nitrogen, the bar was contacted with the corneal in both eyes of 2 cynomolgus monkeys (purchased from Shiga University of Medical Science). About 7 mm in diameter of the corneal endothelium fell off to make a partial disorder model.
50 μl of SB203580 (3 mM) eyedrops was then administered into the right eye 4 times a day. Similarly, eye drops of abase agent, which is phosphate buffer solution, were administered into the left eye as the control.
Expression of Ki-67 associated with cell proliferation was confirmed to be elevated after administration of SB203580 eye drops by immunostaining. The methodology of immunostaining was in accordance with the above-described Preparation Example 2. The antibodies were changed to antibodies to Ki-67 to conduct the experiment.
For a tissue staining inspection, cultured cells were immobilized with 4% formaldehyde for 10 minutes at room temperature (RT) and incubated for 60 minutes with 1% bovine serum albumin (BSA). The antibodies to Ki-67 were diluted 1:200 to conduct the inspection. For secondary antibodies, a 1:1000 dilution of Alexa Fluor® 488 labeling goat antimouse IgG (Life Technologies) was used. […] Slides were then observed under a fluorescence microscope (all-in-one fluorescence microscope, KEYENCE, Osaka, JAPAN). […]

For `CNC(=O)c1ccc(C)c(-n2c(C)cc(OCc3ccc(F)cc3F)c(Br)c2=O)c1` [PH-797804, 3-(3-bromo-4-((2,4-difluorobenzyl)oxy)-6-methyl-2-oxopyridine-1(2H)-yl)-N,4-dimethylbenzamide], the “BrdU uptake as a percentage with respect to the control (proliferation)” value (“BrdU uptake as a percentage” for short) in experiment [1] is listed as “promotes proliferation”.

As for `CC(C)(C)Cn1c(N)nc2ccc(-c3nc(C(C)(C)C)[nH]c3-c3ccc(F)cc3)nc21` [LY2228820, 5-(2-(tert-butyl)-5-(4-fluorophenyl)-1H-imidazole-4-yl)-3-neopentyl-3H-imidazo[4,5-b]pyridine-2-amine], in experiment [1], the “BrdU uptake as a percentage” value is listed as “promotes proliferation”.

For `Cc1ccc(-n2nc(C(C)(C)C)cc2NC(=O)Nc2ccc(OCCN3CCOCC3)c3ccccc23)cc1` [BIRB796, N-[3-tert-butyl-1-(4-methylphenyl)pyrazole-5-yl]-N′-[4-(2-morpholinoethoxy)-1-naphthyl]urea], in experiment [1], the “BrdU uptake as a percentage” value is recorded as “promotes proliferation”.

Regarding `CCc1nc(-c2cccc(C)c2)c(-c2ccnc(NC(=O)c3ccccc3)c2)s1` [TAK-715, 2-benzamide-4-[2-ethyl-4-(3-methylphenyl)thiazole-5-yl]pyridine], in experiment [1], the “BrdU uptake as a percentage” value is recorded as “promotes proliferation”.

As for `C[S+]([O-])c1ccc(-c2nc(-c3ccncc3)c(-c3ccc(F)cc3)[nH]2)cc1` (stereo not shown) [SB203580, 4-(4-fluorophenyl)-2-(4-methylsulfinylphenyl)-5-(4-pyridyl)-1H-imidazole], the “wound area of corneal endothelium (alizarin staining)” value with corneal endothelium [2] (10 mM eye drops 4 times a day for 2 days, 50 μl per dose, 6 eyes each, vs control, p<0.01) is recorded as “contracted significantly more”. The “transparency of cornea (anterior eye section picture)” value with corneal endothelium [2] (10 mM eye drops 4 times a day for 2 days, 50 μl per dose, day 2) is recorded as “recovered quickly”. The “Expression of Ki67 in corneal tissue (ratio of Ki67 positive cells)” value in the experiment on corneal endothelium [2] (10 mM eye drops, vs control) is given as “significantly more cells”. The “Cytokines other than serpinE1 (GROa, sICAM-1, IL-6, IL-8, IL-23, MCP-1, MIF) in culture supernatant” value in experiment [3] is on record as “decreased relative to vehicle”. Besides, the “BrdU uptake as a percentage” value in experiment [1] is “promotes proliferation”. Also, the “percentage of Ki67 positive cells in corneal endothelium” value in the experiment with corneal endothelium [4] is “significantly more Ki67 positive cells”.
